Drawing on US9822074B2, “Dihydropyridinone MGAT2 inhibitors” (BRISTOL-MYERS SQUIBB COMPANY, priority 2013, dated 2017), this text covers IC50 for two compounds.

The experiment addresses human MGAT2 (Homo sapiens (Human), UniProt Q3SYC2). As to the kind of experiment: MGAT LCMS Assay (MGAT2 in vitro enzyme assay). The class given is biochemical. Particulars: Human MGAT-2 membranes expressed in Sf9 cells; 100 μM 2-oleoylglycerol, 15 μM oleoyl-Coenzyme A; read-out: h-MGAT LCMS IC50. As for the experimental part:
The MGAT enzyme reactions were performed in Corning FALCON® 96-well Polypropylene plates, in a total volume of 60 μL of 50 mM Potassium Phosphate buffer pH 7.4, containing a final concentration of 100 μM 2-oleoylglycerol, 15 μM oleoyl-Coenzyme A and 0.0013 μg/μL Human or Mouse MGAT-2 or 0.0026 μg/μL Rat recombinant MGAT-2 membranes expressed in Sf9 cells. Assay plates were run through a fully automated robotics system and shaken for 5 seconds every minute for a total 10 minutes. The reactions were then quenched with 120 μL of ice cold methanol containing 1 μg/mL 1,2-distearoyl-rac-glycerol as the internal standard. Plates were shaken for 2 minutes and spun down to remove protein precipitation. After the spin, samples were transferred to LC/MS compatible PCR plates. For LC/MS analysis, a ThermoFisher Surveyor pump, utilizing a Waters Symmetry C8, 50×2.1 mm column, was used for the chromatography of enzyme products. The buffer system consists of 0.1% formic acid in water with a mobile phase consisting 0.1% formic acid in methanol. The shallow gradient is 90-100% mobile phase in 0.2 min with a total run time of 2.3 min. The first 0.5 minutes of each injection was diverted to waste to eliminate the presence of Phosphate buffer in the enzymatic reaction. The column was run at 0.6 mL/min and a temperature of 65° C. […]

Chain of human MGAT2 (Q3SYC2 whole entry): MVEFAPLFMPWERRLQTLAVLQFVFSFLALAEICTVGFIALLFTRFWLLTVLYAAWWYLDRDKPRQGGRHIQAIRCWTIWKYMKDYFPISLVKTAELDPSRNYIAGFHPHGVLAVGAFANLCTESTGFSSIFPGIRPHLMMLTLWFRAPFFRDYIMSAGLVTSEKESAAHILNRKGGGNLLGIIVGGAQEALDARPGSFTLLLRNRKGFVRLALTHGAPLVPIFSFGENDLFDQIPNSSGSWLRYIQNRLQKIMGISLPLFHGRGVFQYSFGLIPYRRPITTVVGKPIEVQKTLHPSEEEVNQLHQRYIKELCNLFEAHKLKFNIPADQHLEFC

`CC(C)n1ccc(C2=C(C(=O)NS(=O)(=O)C3CC3)C(=O)N[C@@](c3ccc(CCCCC(F)(F)F)cc3F)(C(F)(F)F)C2)n1` [Example 49, (S)-N-(cyclopropylsulfonyl)-6-(2-fluoro-4-(5,5,5-trifluoropentyl)phenyl)-4-(1-isopropyl-1H-pyrazol-3-yl)-2-oxo-6-(trifluoromethyl)-1,2,5,6-tetrahydropyridine-3-carboxamide]: the IC50 was determined as 35 nM.
To `O=C1N[C@@](c2ccc(CCCCC(F)(F)F)cc2F)(C(F)(F)F)CC(c2ccn(C3CCC3)n2)=C1C(=O)NS(=O)(=O)C1CC1` [Example 50, (S)-4-(1-cyclobutyl-1H-pyrazol-3-yl)-N-(cyclopropylsulfonyl)-6-(2-fluoro-4-(5,5,5-trifluoropentyl)phenyl)-2-oxo-6-(trifluoromethyl)-1,2,5,6-tetrahydropyridine-3-carboxamide] belongs 16 nM.

The term IC50 denotes the concentration needed to halve the response being measured.
